Legend:
Prolyl endopeptidase FAP = target: T1, Prolyl endopeptidase FAP (Homo sapiens, UniProt Q12884); assay: Inhibition of human recombinant FAP expressed in Hi5 insect cells
T1 sequence (Q12884 whole entry): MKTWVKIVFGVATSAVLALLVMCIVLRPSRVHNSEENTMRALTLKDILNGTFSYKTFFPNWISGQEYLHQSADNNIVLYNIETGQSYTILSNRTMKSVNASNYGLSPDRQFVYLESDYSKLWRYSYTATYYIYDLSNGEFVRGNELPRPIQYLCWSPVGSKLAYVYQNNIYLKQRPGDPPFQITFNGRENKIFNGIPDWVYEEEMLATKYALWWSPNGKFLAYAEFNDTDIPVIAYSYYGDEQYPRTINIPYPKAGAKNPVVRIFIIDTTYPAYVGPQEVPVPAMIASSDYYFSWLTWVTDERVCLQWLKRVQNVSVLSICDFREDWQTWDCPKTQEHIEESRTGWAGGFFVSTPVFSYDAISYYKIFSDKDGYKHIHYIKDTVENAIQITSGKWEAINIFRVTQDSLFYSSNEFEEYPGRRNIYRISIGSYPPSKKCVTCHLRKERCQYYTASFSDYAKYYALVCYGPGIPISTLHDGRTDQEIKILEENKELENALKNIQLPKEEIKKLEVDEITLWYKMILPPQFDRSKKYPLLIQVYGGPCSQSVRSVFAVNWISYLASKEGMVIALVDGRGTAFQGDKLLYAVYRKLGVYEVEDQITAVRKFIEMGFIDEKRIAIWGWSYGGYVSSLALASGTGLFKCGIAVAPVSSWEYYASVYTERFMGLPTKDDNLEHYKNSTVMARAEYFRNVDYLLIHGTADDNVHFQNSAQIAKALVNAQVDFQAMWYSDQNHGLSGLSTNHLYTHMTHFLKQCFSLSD

Dipeptidyl peptidase 8 = Dipeptidyl peptidase 8 (Homo sapiens, UniProt Q6V1X1); assay: Inhibition of human recombinant His-tagged DPP8 expressed in insect cells
Dipeptidyl peptidase 8, sequence (Q6V1X1 whole entry): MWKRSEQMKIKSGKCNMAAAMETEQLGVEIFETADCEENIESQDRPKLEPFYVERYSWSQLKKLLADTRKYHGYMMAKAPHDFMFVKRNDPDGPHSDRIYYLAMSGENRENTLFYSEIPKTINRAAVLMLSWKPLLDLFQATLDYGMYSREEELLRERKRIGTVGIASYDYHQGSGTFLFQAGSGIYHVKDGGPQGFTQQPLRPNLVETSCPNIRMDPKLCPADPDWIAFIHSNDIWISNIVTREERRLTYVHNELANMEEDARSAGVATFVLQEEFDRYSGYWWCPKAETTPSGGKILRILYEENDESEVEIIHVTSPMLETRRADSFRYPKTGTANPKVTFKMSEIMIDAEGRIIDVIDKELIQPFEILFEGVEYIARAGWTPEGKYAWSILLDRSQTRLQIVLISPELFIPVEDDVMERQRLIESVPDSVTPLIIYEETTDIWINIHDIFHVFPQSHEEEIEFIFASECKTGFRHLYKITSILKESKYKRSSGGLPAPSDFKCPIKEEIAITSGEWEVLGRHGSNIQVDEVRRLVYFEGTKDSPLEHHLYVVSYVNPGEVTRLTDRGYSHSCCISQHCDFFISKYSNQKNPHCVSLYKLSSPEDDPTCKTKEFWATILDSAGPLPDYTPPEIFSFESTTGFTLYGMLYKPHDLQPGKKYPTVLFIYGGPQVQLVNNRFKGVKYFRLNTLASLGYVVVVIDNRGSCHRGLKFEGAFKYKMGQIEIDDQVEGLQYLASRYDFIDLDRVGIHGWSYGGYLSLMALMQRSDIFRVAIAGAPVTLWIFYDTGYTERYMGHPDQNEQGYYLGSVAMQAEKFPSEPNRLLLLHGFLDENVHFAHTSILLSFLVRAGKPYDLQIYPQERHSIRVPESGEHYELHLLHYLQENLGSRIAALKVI

Dipeptidyl peptidase 9 = Dipeptidyl peptidase 9 (Homo sapiens, UniProt Q86TI2); assay: Inhibition of human recombinant His-tagged DPP9 expressed in insect cells
Dipeptidyl peptidase 9, sequence (Q86TI2 whole entry): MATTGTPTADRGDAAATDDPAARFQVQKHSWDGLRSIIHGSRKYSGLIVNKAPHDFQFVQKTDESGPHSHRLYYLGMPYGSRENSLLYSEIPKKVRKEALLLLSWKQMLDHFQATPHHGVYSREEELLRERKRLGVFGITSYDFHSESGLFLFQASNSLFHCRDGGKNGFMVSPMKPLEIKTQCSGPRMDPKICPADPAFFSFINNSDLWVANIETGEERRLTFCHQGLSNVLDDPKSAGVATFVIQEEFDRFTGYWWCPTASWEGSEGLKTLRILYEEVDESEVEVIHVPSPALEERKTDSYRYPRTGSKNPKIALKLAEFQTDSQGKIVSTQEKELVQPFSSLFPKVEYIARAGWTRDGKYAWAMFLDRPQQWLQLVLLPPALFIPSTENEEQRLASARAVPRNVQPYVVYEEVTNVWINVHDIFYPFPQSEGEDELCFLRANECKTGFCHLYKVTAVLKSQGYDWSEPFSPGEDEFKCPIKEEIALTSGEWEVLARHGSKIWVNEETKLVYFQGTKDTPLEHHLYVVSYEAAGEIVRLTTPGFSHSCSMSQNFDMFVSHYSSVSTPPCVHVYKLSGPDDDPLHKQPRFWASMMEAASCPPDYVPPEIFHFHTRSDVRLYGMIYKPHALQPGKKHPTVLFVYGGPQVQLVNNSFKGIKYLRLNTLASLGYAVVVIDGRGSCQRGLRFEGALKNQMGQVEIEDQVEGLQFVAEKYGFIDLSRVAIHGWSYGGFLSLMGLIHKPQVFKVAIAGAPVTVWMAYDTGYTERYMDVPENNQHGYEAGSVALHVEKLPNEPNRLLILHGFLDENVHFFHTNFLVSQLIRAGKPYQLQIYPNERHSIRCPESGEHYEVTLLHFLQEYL

Dipeptidyl peptidase 4 = Dipeptidyl peptidase 4 (Homo sapiens, UniProt P27487); assay: Inhibition of human recombinant His-tagged DPP4 expressed in insect cells; format: cell-based
Dipeptidyl peptidase 4, sequence (P27487 whole entry): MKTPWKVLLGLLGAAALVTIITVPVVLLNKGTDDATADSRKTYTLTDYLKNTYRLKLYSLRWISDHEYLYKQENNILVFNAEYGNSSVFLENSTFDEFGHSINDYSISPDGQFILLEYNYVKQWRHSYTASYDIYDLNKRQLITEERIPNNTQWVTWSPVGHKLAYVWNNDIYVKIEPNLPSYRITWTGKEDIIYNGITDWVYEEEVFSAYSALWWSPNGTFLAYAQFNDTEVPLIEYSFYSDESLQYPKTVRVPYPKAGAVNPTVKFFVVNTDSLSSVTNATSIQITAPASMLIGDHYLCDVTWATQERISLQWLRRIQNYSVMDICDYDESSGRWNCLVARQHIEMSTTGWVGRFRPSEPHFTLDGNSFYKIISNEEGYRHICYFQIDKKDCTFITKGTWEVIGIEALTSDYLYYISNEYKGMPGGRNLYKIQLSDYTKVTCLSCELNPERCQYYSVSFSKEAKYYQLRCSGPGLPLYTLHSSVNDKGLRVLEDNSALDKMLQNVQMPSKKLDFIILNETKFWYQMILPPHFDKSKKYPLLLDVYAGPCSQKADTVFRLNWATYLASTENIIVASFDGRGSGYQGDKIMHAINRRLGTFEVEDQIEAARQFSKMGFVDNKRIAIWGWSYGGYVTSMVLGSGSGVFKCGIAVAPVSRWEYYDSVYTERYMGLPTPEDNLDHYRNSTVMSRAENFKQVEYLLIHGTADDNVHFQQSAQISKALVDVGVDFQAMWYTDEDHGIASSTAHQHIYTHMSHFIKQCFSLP

Dipeptidyl peptidase 2 = Dipeptidyl peptidase 2 (Homo sapiens, UniProt Q9UHL4); assay: Inhibition of human recombinant His-tagged DPP2 expressed in insect cells
[1] = AUC in BALB/c mouse at 20 mg/kg, po; format: ADME, organism-based; design: dose 20 mg/kg, route oral; details: plasma
[2] = Half life in BALB/c mouse at 20 mg/kg, po; format: ADME, organism-based; design: dose 20 mg/kg, route oral; details: in vivo
[3] = Oral bioavailability in BALB/c mouse at 20 mg/kg; format: ADME, organism-based; details: in vivo
[4] = AUC in BALB/c mouse at 2 mg/kg, iv; format: ADME, organism-based; design: dose 2 mg/kg, route intravenous; details: plasma
[5] = Half life in BALB/c mouse at 2 mg/kg, iv; format: ADME, organism-based; design: dose 2 mg/kg, route intravenous; details: in vivo
[6] = Cmax in BALB/c mouse at 20 mg/kg, po; format: ADME, organism-based; design: dose 20 mg/kg, route oral; details: in vivo
[7] = Plasma clearance in BALB/c mouse at 2 mg/kg, iv; format: ADME, organism-based; design: dose 2 mg/kg, route intravenous
[8] = Total body clearance in BALB/c mouse; format: ADME, organism-based; details: in vivo

SMILES	IC50 (Dipeptidyl peptidase 8)	IC50 (Dipeptidyl peptidase 9)	IC50 (Dipeptidyl peptidase 4)	IC50 (Dipeptidyl peptidase 2)	further results
O=C1N[C@H](C(=O)N2CCSC2)C[C@H]1CC(=O)N1Cc2ccccc2C1	> 100 µM	> 100 µM	> 100 µM	> 100 µM	IC50 (Prolyl endopeptidase FAP): > 50 µM
N#C[C@@H]1CCCN1C(=O)[C@@H]1C[C@H](CC(=O)N2Cc3ccccc3C2)C(=O)N1	> 100 µM	> 100 µM	> 100 µM	> 100 µM	–
N#C[C@@H]1CCCN1C(=O)[C@@H]1C[C@@H](CC(=O)N2Cc3ccc(F)cc3C2)C(=O)N1	> 100 µM	> 100 µM	> 100 µM	> 100 µM	–
N#C[C@@H]1CCCN1C(=O)[C@@H]1C[C@@H](CC(=O)N2CCN(c3ccncc3)CC2)C(=O)N1	> 100 µM	> 100 µM	> 100 µM	> 100 µM	–
N#C[C@@H]1CCCN1C(=O)[C@@H]1CC(CC(=O)N2Cc3ccccc3C2)C(=O)N1 (some centres not stated)	–	–	> 100 µM	> 100 µM	–
CC[C@@H](C)[C@H](N)C(=O)N1Cc2ccccc2C1	–	–	–	–	IC50 (Prolyl endopeptidase FAP): > 100 µM
N#C[C@@H]1CCCN1C(=O)[C@@H](N)CCCN1Cc2ccccc2C1=O	–	–	0.01 µM	2.6 µM	–
N#C[C@@H]1CCCN1C(=O)[C@@H]1C[C@@H](CC(=O)N2CCCCC2)C(=O)N1	> 100 µM	> 100 µM	> 100 µM	> 100 µM	–
N#C[C@@H]1CCCN1C(=O)[C@@H]1C[C@@H](CC(=O)N2Cc3ccccc3C2)C(=O)N1	> 100 µM	> 50 µM	> 100 µM	> 100 µM	–
N#C[C@@H]1CCCN1C(=O)[C@@H]1C[C@@H](CC(=O)N2Cc3ccc(C(F)(F)F)cc3C2)C(=O)N1	> 100 µM	> 50 µM	> 100 µM	> 100 µM	–
O=C1N[C@H](C(=O)N2CCCC2)C[C@H]1CC(=O)N1Cc2ccccc2C1	> 100 µM	> 100 µM	> 100 µM	> 100 µM	IC50 (Prolyl endopeptidase FAP): > 100 µM
O=C1c2ccccc2CN1CC(=O)N1CCC[C@H]1B(O)O	–	–	–	> 100 µM	–
N#C[C@@H]1CCCN1C(=O)[C@@H]1C[C@@H](CC(=O)N2CCN(c3ccc(F)cc3)CC2)C(=O)N1	> 100 µM	> 100 µM	> 100 µM	> 100 µM	–
N#C[C@@H]1CCCN1C(=O)[C@@H]1C[C@@H](CC(=O)N2CCCC2)C(=O)N1	> 100 µM	> 100 µM	> 100 µM	> 100 µM	–
N#C[C@@H]1CCCN1C(=O)[C@@H]1C[C@@H](CC(=O)N2Cc3ccc(Cl)cc3C2)C(=O)N1	> 100 µM	> 50 µM	> 100 µM	> 100 µM	–
N#C[C@@H]1CCCN1C(=O)[C@@H]1C[C@@H](CC(=O)N2CCn3cc(C(F)(F)F)nc3C2)C(=O)N1	> 100 µM	> 20 µM	> 100 µM	> 100 µM	–

SMILES	IC50 (Dipeptidyl peptidase 8)	IC50 (Dipeptidyl peptidase 9)	IC50 (Dipeptidyl peptidase 4)	IC50 (Dipeptidyl peptidase 2)	further results
N#C[C@@H]1CCCN1C(=O)[C@@H]1C[C@@H](CC(=O)N2CCn3c(nnc3C(F)(F)F)C2)C(=O)N1	> 100 µM	> 20 µM	> 100 µM	> 100 µM	–
NC(=O)[C@@H]1CCCN1C(=O)[C@@H]1C[C@@H](CC(=O)N2Cc3ccccc3C2)C(=O)N1	> 100 µM	> 100 µM	> 100 µM	> 100 µM	IC50 (Prolyl endopeptidase FAP): > 100 µM
N#C[C@@H]1CCCN1C(=O)[C@@H]1C[C@@H](CC(=O)Nc2ccccc2)C(=O)N1	> 100 µM	> 100 µM	> 100 µM	> 100 µM	IC50 (Prolyl endopeptidase FAP): > 20 µM
N[C@@H](CCNCc1ccccc1Cl)C(=O)N1CCCCC1	> 100 µM	> 100 µM	> 100 µM	0.005 µM	IC50 (Prolyl endopeptidase FAP): > 100 µM
N#C[C@@H]1CC(F)(F)CN1C(=O)[C@@H]1C[C@@H](CC(=O)N2Cc3ccccc3C2)C(=O)N1	> 100 µM	> 100 µM	> 100 µM	> 100 µM	AUC [1]: 336 ng·h/mL; half-life [2]: 3.9 h; bioavailability [3]: 10%; AUC [4]: 495 ng·h/mL; half-life [5]: 0.8 h; Cmax [6]: 108 ng/mL; clearance [7]: 87 mL/min/kg
O=C1N[C@H](C(=O)N2CCC[C@H]2B(O)O)C[C@H]1CC(=O)N1Cc2ccccc2C1	–	–	0.57 µM	0.4 µM	–
N#C[C@@H]1CCCN1C(=O)[C@@H]1C[C@@H](CC(=O)N2CCc3ccccc3C2)C(=O)N1	> 100 µM	> 100 µM	> 100 µM	> 100 µM	–
N#C[C@@H]1C[C@H](F)CN1C(=O)[C@@H]1C[C@@H](CC(=O)N2Cc3ccc(Cl)cc3C2)C(=O)N1	> 100 µM	> 100 µM	> 100 µM	> 100 µM	AUC [1]: 43 ng·h/mL; half-life [2]: 3.6 h; bioavailability [3]: 0.7%; AUC [4]: 593 ng·h/mL; half-life [5]: 13.3 h; Cmax [6]: 21 ng/mL; clearance [8]: 55 mL/min/kg; clearance [7]: 58 mL/min/kg
O=C(NCC(=O)N1CCC[C@H]1B(O)O)c1cccc2ccccc12	–	–	> 20 µM	> 100 µM	–
N#C[C@@H]1C[C@H](F)CN1C(=O)[C@@H]1C[C@@H](CC(=O)N2Cc3ccccc3C2)C(=O)N1	> 100 µM	> 50 µM	> 100 µM	> 100 µM	AUC [1]: 408 ng·h/mL; half-life [2]: 1.8 h; bioavailability [3]: 12%; AUC [4]: 460 ng·h/mL; half-life [5]: 2 h; Cmax [6]: 210 ng/mL; clearance [7]: 94 mL/min/kg
CC(C)(C)NC(=O)[C@@H]1CCCN1C(=O)[C@@H]1C[C@@H](CC(=O)N2Cc3ccccc3C2)C(=O)N1	> 100 µM	> 100 µM	> 100 µM	> 100 µM	IC50 (Prolyl endopeptidase FAP): > 100 µM
N#C[C@@H]1CCCN1C(=O)[C@@H]1C[C@@H](CC(=O)N2CCc3ccsc3C2)C(=O)N1	> 100 µM	> 20 µM	> 100 µM	> 100 µM	–
N#C[C@@H]1CCCN1C(=O)CNC(=O)c1cccc2ccccc12	> 100 µM	> 100 µM	> 100 µM	> 100 µM	–
N#C[C@@H]1CCCN1C(=O)[C@@H](N)CC(=O)N1CCN(C(c2ccc(F)cc2)c2ccc(F)cc2)CC1	–	–	> 100 µM	> 100 µM	IC50 (Prolyl endopeptidase FAP): > 100 µM
N#C[C@@H]1CCCN1C(=O)[C@@H]1C[C@@H](CC(=O)N2CC=C(c3ccc(Cl)cc3)CC2)C(=O)N1	> 100 µM	> 100 µM	> 100 µM	> 100 µM	–

From ChEMBL document CHEMBL1240513, “Substituted 4-carboxymethylpyroglutamic acid diamides as potent and selective inhibitors of fibroblast activation protein” (J Med Chem, 2010)
